Reference: paper PMC12394552, “Multi-biological activity evaluation of Sn(П), Zn(П) and Fe(П) complexes based on thiocarbohydrazide schiff bases: synthesis, spectroscopic investigations and fluorescence studies” (Scientific Reports, 2025)
≈ marks a conversion by molar mass, not a printed value. Read-outs that look alike come from different tables or passages of the source.

Tests used:
[1] = tested on: Escherichia coli ATCC 8739; assay: MIC determination, broth microdilution (EUCAST adapted); type: cell-based; settings: ATCC8739, read-out: E. coli MIC value
Protocol: (§1) The compounds were tested against Gram-positive bacteria (Staphylococcus aureus ATCC 6538), Gram-negative bacteria (Escherichia coli ATCC 8739) and yeast (Candida albicansATCC10231). […] For bacterial strains, the EUCAST (2025) method was adapted. A few colonies of each bacterial culture previously grown on Mueller-Hinton agar for 24–48 h were suspended in normal saline and adjusted to 0.5 McFarland (1.5 × 10^8 CFU/mL). A 1/10 dilution was prepared in Mueller-Hinton broth (MHB) for the inoculation. In the wells of a 96-well flat-bottom microtiter plate, double serial dilutions of each compound were prepared in MHB. Each well was inoculated with the bacteria to achieve ca. 5 × 10^5 CFU/mL, and the plates were incubated at 37 °C overnight. Positive control (bacteria in culture medium only) and negative control (culture medium) were prepared. Each compound was tested in duplicate. After incubation, the plates were inspected visually for growth inhibition. To test the antimicrobial activity of DMSO, double serial dilutions of DMSO in broth medium were prepared and processed as the samples, but without the addition of the compounds. The antibacterial drug ciprofloxacin was used as a reference for comparison.
(§2) For Candida albicans, the same procedure applied to bacteria was used, except after inoculation, the plates were incubated at 35 °C for 24 h, and after incubation, the absorbance was measured at 530 nm using a plate reader. […] The absorbance of the wells was corrected by subtracting the absorbance of the blank. […] The antifungal drug fluconazole was used as a reference for comparison.

[2] = tested on: Staphylococcus aureus ATCC 6538; assay: as above; type: cell-based; settings: ATCC6538, read-out: S. aureus MIC value
Protocol: as §1, §2

[3] = tested on: Candida albicans ATCC10231; assay: MIC determination, broth microdilution, absorbance 530 nm; type: cell-based; settings: ATCC10231, 24 h, read-out: C. albicans MIC value at 50% inhibition
Protocol: as §1, §2

RAW 264.7 macrophages = assay: SRB cytotoxicity on RAW 264.7 viability; type: cell-based; settings: Mus musculus, RAW264.7, read-out: RAW 264.7 viability IC50 value
Protocol: (§3) All malignancy cell lines were cultured in high glucose DMEM (Bio Whittaker, Verviers, Belgium) containing 10% FBS, 4-(2-hydroxyethyl)-1-piperazineethanesulfonic acid (HEPES) Buffer (10 mM), L-glutamine (2 mM), gentamicin (50 µg/mL), penicillin (100 U/mL), and streptomycin sulfate ([…]) from Sigma (St. Luis, MO, USA) whereas Sulforhodamine B was from Santa Cruz Biotechnology (Inc. Texas, USA). Surviving cancer cell lines provide numerous advantages; they provide a pure and continuous supply of cells, thus overcoming any ethical barriers concerning human tissue usage, and are cost-effective. For cytotoxicity screening, adherent monolayers of all procured malignancies’ cell lines were examined. Periodontal ligament fibroblasts (PDL) were used to determine selective cytotoxicity.
RAW 264.7 mouse macrophage cell line (ATCC® TIB-71) were cultured in high glucose DMEM supplemented with 10% (FBS), penicillin (100 U/mL), streptomycin (100 µg/mL), and L-glutamate (100 µg/mL) in a 37 °C humidified atmosphere with 95% air and 5% CO2. Confluent macrophages (2 × 10^5/well) were incubated with inflammation-priming lipopolysaccharide (LPS; Sigma, St. Luis, MO, USA) with either indomethacin as the reference agent[39] or treatment compounds at different concentrations (1.563-200 µM). Griess reagent was mixed with aliquots of cell culture media and incubated at R.T. for 10 min. Absorbance at 550 nm was determined using a microplate reader (Spectro Scan 80D UV-VIS spectrophotometer (Sedico Ltd., Nicosia, Cyprus). The nitrite concentration was determined by comparison with a sodium nitrite standard curve. SRB cytotoxicity protocol was performed for evaluation of the effect of the studied test compounds on RAW 264.7 viability.

[4] = tested on: Periodontal ligament fibroblasts (PDL); assay: SRB selective cytotoxicity in normal fibroblasts; type: cell-based; settings: Fibroblast
Protocol: as §3

A375 skin melanoma = assay: SRB antiproliferative assay; type: cell-based; settings: Homo sapiens, A-375, 72 h; read-out: Cytotoxicity (as of %Control) IC50 value, A375 skin melanoma
Protocol: as §3

[5] = tested on: CACO2 colorectal cancer cell line; assay: SRB antiproliferative assay; type: cell-based
Protocol: as §3

[6] = tested on: HCT116 colorectal cancer cell line; assay: SRB antiproliferative assay; type: cell-based
Protocol: as §3

[7] = tested on: HT29 colorectal cancer cell line; assay: SRB antiproliferative assay; type: cell-based
Protocol: as §3

[8] = tested on: SW620 colorectal cancer cell line; assay: SRB antiproliferative assay; type: cell-based
Protocol: as §3

U87 glioblastoma = assay: SRB antiproliferative assay; type: cell-based; settings: Homo sapiens, 72 h, read-out: Cytotoxicity (as of %Control) IC50 value, U87 Gliobalstoma
Protocol: as §3

A549 lung malignancy = assay: SRB antiproliferative assay; type: cell-based, human; settings: Homo sapiens, A549, 72 h; read-out: Cytotoxicity (as of %Control) IC50 value, A549 lung malignancy
Protocol: as §3

[9] = tested on: BT-549 invasive mammary malignancy; assay: SRB antiproliferative assay; type: cell-based, human; settings: Homo sapiens, BT-549, 72 h; read-out: Cytotoxicity (as of %control) IC50 value, BT-549 invasive mammary malignancy
Protocol: as §3

Hela cervix malignancy = assay: SRB antiproliferative assay; type: cell-based, human
Protocol: as §3

MCF7 mammary malignancy = assay: SRB antiproliferative assay; type: cell-based, human
Protocol: as §3

[10] = tested on: MDA-MB-231 invasive mammary malignancy; assay: SRB antiproliferative assay; type: cell-based, human; settings: Homo sapiens, MDA-MB-231, 72 h, read-out: Cytotoxicity (as of %control) IC50 value, MDA-MB-231 invasive mammary malignancy
Protocol: as §3

[11] = tested on: MDA-MB-453 invasive mammary malignancy; assay: SRB antiproliferative assay; type: cell-based, human
Protocol: as §3

[12] = tested on: PANC1 pancreatic cell line; assay: SRB antiproliferative assay; type: cell-based, human
Protocol: as §3

PC3 prostate malignancy = assay: SRB antiproliferative assay; type: cell-based, human
Protocol: as §3

[13] = tested on: SW480 colorectal cancer cell line; assay: SRB antiproliferative assay; type: cell-based, human; settings: Homo sapiens, SW480, 72 h; read-out: Cytotoxicity (as of %control) IC50 value, SW480
Protocol: as §3

T47D mammary malignancy = assay: SRB antiproliferative assay; type: cell-based, human; settings: Homo sapiens, T47D, 72 h; read-out: Cytotoxicity (as of %control) IC50 value, T47D mammary malignancy
Protocol: as §3

[14] = DPPH free radical scavenger assay; settings: values given in µM; 1 h incubation, 517 nm; test range 6.25–200 µM; mean ± SD n = 4
Text: This method depends on the reduction of the radicals, resulting in a color change from oxidized purple to reduced yellow. Principally, Diphenyl-2-picryl-hydrazyl (DPPH) undergoes reduction in methanol (MeOH) solution, in the presence of a hydrogen-donating compound, due to the formation of the non-radical form DPPH-H. This color change can be quantitatively measured using a 515–520 nm spectrophotometer. In contrast to other radical scavenging assays, a DPPH radical is stable and can provide reproducible spectroscopic values[41],[42]. A DPPH solution (0.2 mM) was diluted with MeOH and then mixed with treatment compounds as well as ascorbic acid in a concentration ratio of 1:1 using a 96-well plate (so that a final concentration range 6.25–200 µM was obtained for test agents); the treated solution was incubated one hour isolated from light. Finally, a change in absorbance at 517 nm wavelength was measured using a microplate reader (Bio-Tek Instrument, USA). Ascorbic acid was the robust and classical standard radical scavenging reference agent for comparison purposes[43],[44]. The calculation of the DPPH radical scavenging activity inhibition was determined by the following equation, where A represents photometric absorbance: in % = (A control – A sample) / A control x 100%)[45].

Row | SMILES | MIC [1] [µg/mL] | MIC [2] [µg/mL] | MIC [3] [µg/mL] | IC50 (RAW 264.7 macrophages) [µM] | IC50 [4] [µM] | IC50 (A375 skin melanoma) [µM] | IC50 (U87 glioblastoma) [µM] | IC50 (A549 lung malignancy) [µM] | IC50 [9] [µM] | IC50 [10] [µM] | IC50 [13] [µM] | IC50 (T47D mammary malignancy) [µM] | further results
1 | COc1ccccc1/C=N/NC(=S)N/N=C/c1ccccc1OC [L1, 1,5-bis(2-methoxyanisaldehyde) thiocarbohydrazine] | 31.3 (≈ 91.4 µM) | 15.6 (≈ 45.6 µM) | 31.3 (≈ 91.4 µM) | > 200 | > 200 | 41.7 ± 0.7 | 29.5 ± 0.2 | 44.8 ± 1.8 | 46.4 ± 1.11 | 29.2 ± 3.8 | 5.35 ± 0.25 | 21.8 ± 1.2 | IC50 ([5]; Homo sapiens, Caco-2, 72 h; read-out: Cytotoxicity (as of %control) IC50 value, CACO2): 23.2 ± 0.6 µM; IC50 ([6]; Homo sapiens, HCT-116, 72 h; read-out: Cytotoxicity (as of %control) IC50 value, HCT116): 36.1 ± 1.9 µM; IC50 ([7]; Homo sapiens, HT-29, 72 h; read-out: Cytotoxicity (as of %control) IC50 value, HT29): 42.1 ± 5.7 µM; IC50 ([8]; Homo sapiens, SW-620, 72 h, read-out: Cytotoxicity (as of %control) IC50 value, SW620): < 3.12 µM; IC50 (Hela cervix malignancy; Homo sapiens, HeLa, 72 h; read-out: Cytotoxicity (as of %Control) IC50 value, Hela cervix malignancy): 44.8 ± 3.8 µM; IC50 (MCF7 mammary malignancy; Homo sapiens, MCF7, 72 h; read-out: Cytotoxicity (as of %control) IC50 value, MCF7 mammary malignancy): 52.4 ± 5.25 µM; IC50 ([11]; Homo sapiens, MDA-MB-453, 72 h; read-out: Cytotoxicity (as of %control) IC50 value, MDA-MB-453 invasive mammary malignancy): 72.9 ± 3.4 µM; IC50 ([12]; Homo sapiens, PANC-1, 72 h; read-out: Cytotoxicity (as of %control) IC50 value, PANC1): 66.8 ± 0.2 µM; IC50 (PC3 prostate malignancy; Homo sapiens, 72 h; read-out: Cytotoxicity (as of %Control) IC50 value, PC3 prostate malignancy): 145 ± 1.5 µM
2 | O=C(O)c1cn(C2CC2)c2cc(N3CCNCC3)c(F)cc2c1=O [Ciprofloxacin, reference compound] | 0.0008 (≈ 0.00241 µM) | 0.097 (≈ 0.293 µM) |  |  |  |  |  |  |  |  |  |  | 
3 | COc1ccc(/C=N/NC(=S)N/N=C/c2ccc(OC)cc2)cc1 [L2, 1,5-bis (4-methoxyanisaldehyde) thiocarbohydrazine] | 31.3 (≈ 91.4 µM) | 15.6 (≈ 45.6 µM) | 31.3 (≈ 91.4 µM) | > 200 | > 200 | > 200 | > 200 | 36.6 ± 0.2 | 94.8 ± 4.17 | > 200 | 51.6 ± 3.07 | > 200 | IC50 [14]: 18.1 ± 2.04 µM; IC50 ([5]; Homo sapiens, Caco-2, 72 h, read-out: Cytotoxicity (as of %control) IC50 value, CACO2): > 200 µM; IC50 ([6]; Homo sapiens, HCT-116, 72 h, read-out: Cytotoxicity (as of %control) IC50 value, HCT116): > 200 µM; IC50 ([7]; Homo sapiens, HT-29, 72 h, read-out: Cytotoxicity (as of %control) IC50 value, HT29): > 200 µM; IC50 ([8]; Homo sapiens, SW-620, 72 h; read-out: Cytotoxicity (as of %control) IC50 value, SW620): 117 ± 3.81 µM; IC50 (Hela cervix malignancy; Homo sapiens, HeLa, 72 h, read-out: Cytotoxicity (as of %Control) IC50 value, Hela cervix malignancy): > 200 µM; IC50 (MCF7 mammary malignancy; Homo sapiens, MCF7, 72 h, read-out: Cytotoxicity (as of %control) IC50 value, MCF7 mammary malignancy): > 200 µM; IC50 ([11]; Homo sapiens, MDA-MB-453, 72 h, read-out: Cytotoxicity (as of %control) IC50 value, MDA-MB-453 invasive mammary malignancy): > 200 µM; IC50 ([12]; Homo sapiens, PANC-1, 72 h, read-out: Cytotoxicity (as of %control) IC50 value, PANC1): > 200 µM; IC50 (PC3 prostate malignancy; Homo sapiens, 72 h, read-out: Cytotoxicity (as of %Control) IC50 value, PC3 prostate malignancy): > 200 µM
